Experimental data reported in PMC7399811, “Analogues of a Cyclic Antimicrobial Peptide with a Flexible Linker Show Promising Activity against Pseudomonas aeruginosa and Staphylococcus aureus” (Antibiotics, 2020).
≈ marks a conversion by molar mass, not a printed value. Square brackets hold non-standard residues; d marks the D form. Peptide text beside a SMILES is read from it. Bip = N[C@@H](Cc1ccc(-c2ccccc2)cc1)C(=O)O; 2Nal = N[C@@H](Cc1ccc2ccccc2c1)C(=O)O; Dab = NCC[C@H](N)C(=O)O; AEEA = NCCOCCOCC(=O)O

Key:
E. coli ATCC 29522 = type: cell-based; settings: ATCC 29522
Method: (§1) Bacterial strains (E. coli ATCC 29522, S. aureus ATCC 29213, A. baumannii ATCC 19606, and P. aeruginosa ATCC 27853) were grown overnight on LB agar plates at 37 °C. Overnight cultures were prepared by inoculation of two to three colonies in 10 mL non-cation adjusted Mueller–Hinton broth (MHB) media (BD BBLTM Beef extract powder, BD BactoTMCasamino acids, and DIFCO soluble starch). Bacterial inoculum for MIC testing was prepared as balanced cultures, as previously described. The bacterial suspension was adjusted using MHB to an OD600 of 0.1, approximately 1·10^8 colony forming units (CFU/mL), and then diluted 1:200 in MHB, to give a final bacterial suspension of 5·10^5 CFU/mL, as described by Wiegand et al.. […] For MIC determination, all peptides were measured in triplicates using the protocol described by Wiegand et al. for “antimicrobial peptides that require the presence of acetic acid/BSA”. In brief, 20 µL peptide solution and gentamycin solution was transferred to column 1 of 96-well plates. Next, 10 µL 0.2% BSA; 0.01% acetic acid MHB media was transferred to column 2–11. Subsequently, peptides were serially diluted two-fold in the MIC plate and 90 µL bacterial suspension was transferred to all wells in column 1–11. Next, 100 µL bacterial suspension was transferred to column 12 D–F (growth control) and 100 µL media to column 12 A–C (sterility control). After an overnight incubation at 37 °C of the MIC plates, MIC values were determined as the lowest concentration at which there was no visible bacterial growth. For the inoculum control, 10 µL of solution from a positive-growth control well from each bacterial strain was dissolved in 990 µL phosphate-buffered saline (PBS) (1:100 dilution) in an Eppendorf tube. This solution was vortexed and 100 µL transferred to another Eppendorf tube containing 900 µL PBS (1:10 dilution) and vortexed. Then, 100 µL of each dilution was spread onto the MHB media plates, in triplicates, to achieve a CFU dilution of 1:1000 and 1:10,000, respectively. The plates were incubated overnight at 37 °C. The colonies were counted and 50 colonies were expected on the 1:10,000 plates and 500 on the 1:1000 plates.

P. aeruginosa ATCC 27853 = type: cell-based
Method: as §1

S. aureus ATCC 29213 = type: cell-based
Method: as §1

A. baumannii ATCC 19606 = type: cell-based; settings: ATCC 19606
Method: as §1

red blood cells = settings: at 150 µM peptide; 0.5% v/v RBC in PBS, 1 h 37 °C, absorbance 414 nm, normalized to melittin (100%) and PBS (0%)
Method: A total of 150 µL of 5 µM melittin was added to the positive control wells 1-6H of a V-shaped 96-well polypropylene plate and left overnight. The melittin solution was removed and the positive control wells were washed 3 times with 150 µL PBS. Afterwards, a 2.5 µM melittin solution was added to the positive control wells. For the assay, 0-negative blood in EDTA was used. Blood was washed by mixing 3 mL of PBS with 1 mL of whole blood, and centrifuged for 8 min at 3000 rpm. The supernatant was discarded and 4 mL of PBS added, mixed gently, and centrifuged. This wash cycle was repeated but the last centrifuge velocity was raised to 4000 rpm. Next, 40 µL red blood cells (RBC) was suspended in 8 mL of PBS to achieve an RBC suspension of 0.5% volume/volume (v/v). Peptide solutions were prepared at 600 µM, two times the highest concentration. A total of 150 µL peptide solution was transferred to row A. Next, 75 µL PBS was transferred to wells B1 to G12, as well as H7-12 (negative control), and the peptides were serially diluted two-fold. Then, 75 µL RBC suspension was added to all wells and the plate was covered with a Microseal® film and incubated for 1 h at 37 °C. Next, the plate was centrifuged for 10 min at 4000 rpm. Subsequently, 60 µL supernatant was transferred into the corresponding wells of a clear, polystyrene, flat-bottomed 96-well ELISA plate. The absorbance was read at λ = 414 nm with a VersaMaxTM Tunable Microplate Reader and the data were evaluated on Softmax® Pro. The results were normalized with respect to the average positive (100%) and negative (0%) controls, as described previously [43].

Compound | Minimum inhibitory concentration EC (E. coli ATCC 29522) [mg/L] | Minimum inhibitory concentration PA (P. aeruginosa ATCC 27853) [mg/L] | Minimum inhibitory concentration SA (S. aureus ATCC 29213) [mg/L] | Minimum inhibitory concentration AB (A. baumannii ATCC 19606) [mg/L] | percent hemolytic activity against red blood cells (%H) (red blood cells) [%]
NCCCC[C@@H]1NC(=O)[C@H](Cc2ccc3ccccc3c2)NC(=O)COCCOCCNC(=O)[C@H](Cc2ccc(-c3ccccc3)cc2)NC(=O)[C@H](CCCCN)NC(=O)[C@H](CCCCN)NC(=O)[C@H](Cc2ccc3ccccc3c2)NC(=O)[C@H](CCCCN)NC(=O)[C@H](CC(N)=O)NC1=O [BSI-9, cyclo(Lys-Nal-Lys-Lys-Bip-O2Oc-Nal-Lys-Asn), reference compound] (cyclo(K[2Nal]KK[Bip][AEEA][2Nal]KN)) | 64 (≈ 46.1 µM) | 16 (≈ 11.5 µM) | 32 (≈ 23 µM) | 32 (≈ 23 µM) | 33
NCCCC[C@@H]1NC(=O)[C@H](CCCCN)NC(=O)[C@H](Cc2ccc3ccccc3c2)NC(=O)[C@H](CCCCN)NC(=O)[C@H](CCCCN)NC(=O)[C@H](CC(N)=O)NC(=O)[C@H](Cc2ccc3ccccc3c2)NC(=O)COCCOCCNC(=O)[C@H](Cc2ccc(-c3ccccc3)cc2)NC1=O [compound 1] (cyclo(K[2Nal]KK[Bip][AEEA][2Nal]NK)) | >64 | 32 (≈ 23 µM) | >64 | 32 (≈ 23 µM) | –
NCCCC[C@@H]1NC(=O)[C@H](Cc2ccc3ccccc3c2)NC(=O)COCCOCCNC(=O)[C@H](Cc2ccc(-c3ccccc3)cc2)NC(=O)[C@H](CC(N)=O)NC(=O)[C@H](CCCCN)NC(=O)[C@H](Cc2ccc3ccccc3c2)NC(=O)[C@H](CCCCN)NC(=O)[C@H](CCCCN)NC1=O [compound 2] (cyclo(K[2Nal]KN[Bip][AEEA][2Nal]KK)) | >64 | 64 (≈ 46.1 µM) | >64 | >64 | –
NCCCC[C@@H]1NC(=O)[C@H](Cc2ccc3ccccc3c2)NC(=O)COCCOCCNC(=O)[C@H](Cc2ccc(-c3ccccc3)cc2)NC(=O)[C@H](CCCCN)NC(=O)[C@H](CC(N)=O)NC(=O)[C@H](Cc2ccc3ccccc3c2)NC(=O)[C@H](CCCCN)NC(=O)[C@H](CCCCN)NC1=O [compound 3] (cyclo(K[2Nal]NK[Bip][AEEA][2Nal]KK)) | >64 | 64 (≈ 46.1 µM) | 64 (≈ 46.1 µM) | 64 (≈ 46.1 µM) | –
NCCCC[C@@H]1NC(=O)[C@H](Cc2ccc3ccccc3c2)NC(=O)COCCOCCNC(=O)[C@H](Cc2ccc(-c3ccccc3)cc2)NC(=O)[C@H](CCCCN)NC(=O)[C@H](CCCCN)NC(=O)[C@H](Cc2ccc3ccccc3c2)NC(=O)[C@H](CC(N)=O)NC(=O)[C@H](CCCCN)NC1=O [compound 4] (cyclo(N[2Nal]KK[Bip][AEEA][2Nal]KK)) | >64 | 64 (≈ 46.1 µM) | >64 | 64 (≈ 46.1 µM) | –
NCCCC[C@@H]1NC(=O)[C@H](Cc2ccc3ccccc3c2)NC(=O)COCCOCCNC(=O)[C@H](Cc2ccc(-c3ccccc3)cc2)NC(=O)[C@H](CCCCN)NC(=O)[C@H](CCCCN)NC(=O)[C@H](Cc2ccccc2)NC(=O)[C@H](CCCCN)NC(=O)[C@H](CC(N)=O)NC1=O [compound 5] (cyclo(KFKK[Bip][AEEA][2Nal]KN)) | >64 | 32 (≈ 23.9 µM) | >64 | >64 | 4
NCCCC[C@@H]1NC(=O)[C@H](Cc2ccc3ccccc3c2)NC(=O)COCCOCCNC(=O)[C@H](Cc2ccccc2)NC(=O)[C@H](CCCCN)NC(=O)[C@H](CCCCN)NC(=O)[C@H](Cc2ccc3ccccc3c2)NC(=O)[C@H](CCCCN)NC(=O)[C@H](CC(N)=O)NC1=O [compound 6] (cyclo(K[2Nal]KKF[AEEA][2Nal]KN)) | >64 | 32 (≈ 24.4 µM) | >64 | >64 | 6
NCCCC[C@@H]1NC(=O)[C@H](Cc2ccccc2)NC(=O)COCCOCCNC(=O)[C@H](Cc2ccc(-c3ccccc3)cc2)NC(=O)[C@H](CCCCN)NC(=O)[C@H](CCCCN)NC(=O)[C@H](Cc2ccc3ccccc3c2)NC(=O)[C@H](CCCCN)NC(=O)[C@H](CC(N)=O)NC1=O [compound 7] (cyclo(K[2Nal]KK[Bip][AEEA]FKN)) | >64 | 64 (≈ 47.8 µM) | >64 | 64 (≈ 47.8 µM) | 7
NCCCC[C@@H]1NC(=O)[C@H](Cc2ccccc2)NC(=O)COCCOCCNC(=O)[C@H](Cc2ccccc2)NC(=O)[C@H](CCCCN)NC(=O)[C@H](CCCCN)NC(=O)[C@H](Cc2ccccc2)NC(=O)[C@H](CCCCN)NC(=O)[C@H](CC(N)=O)NC1=O [compound 8] (cyclo(KFKKF[AEEA]FKN)) | >64 | >64 | >64 | >64 | 3
N=C(N)NCCC[C@@H]1NC(=O)[C@H](CC(N)=O)NC(=O)[C@H](CCN)NC(=O)[C@H](Cc2ccc3ccccc3c2)NC(=O)COCCOCCNC(=O)[C@H](Cc2ccc(-c3ccccc3)cc2)NC(=O)[C@H](CCN)NC(=O)[C@H](CCN)NC(=O)[C@H](Cc2ccc3ccccc3c2)NC1=O [compound 10] (cyclo(R[2Nal][Dab][Dab][Bip][AEEA][2Nal][Dab]N)) | 32 (≈ 24 µM) | 2 (≈ 1.5 µM) | 2 (≈ 1.5 µM) | 32 (≈ 24 µM) | 66
N=C(N)NCCC[C@@H]1NC(=O)[C@H](CCN)NC(=O)[C@H](Cc2ccc3ccccc3c2)NC(=O)[C@H](CCN)NC(=O)[C@H](CC(N)=O)NC(=O)[C@H](CCN)NC(=O)[C@H](Cc2ccc3ccccc3c2)NC(=O)COCCOCCNC(=O)[C@H](Cc2ccc(-c3ccccc3)cc2)NC1=O [compound 12] (cyclo([Dab][2Nal][Dab]R[Bip][AEEA][2Nal][Dab]N)) | 32 (≈ 24 µM) | 4 (≈ 3 µM) | 1 (≈ 0.75 µM) | 32 (≈ 24 µM) | 98
N=C(N)NCCC[C@@H]1NC(=O)[C@H](Cc2ccc3ccccc3c2)NC(=O)[C@H](CCCNC(=N)N)NC(=O)[C@H](CC(N)=O)NC(=O)[C@H](CCN)NC(=O)[C@H](Cc2ccc3ccccc3c2)NC(=O)COCCOCCNC(=O)[C@H](Cc2ccc(-c3ccccc3)cc2)NC(=O)[C@H](CCN)NC1=O [compound 15] (cyclo(R[2Nal]R[Dab][Bip][AEEA][2Nal][Dab]N)) | 64 (≈ 46.1 µM) | 16 (≈ 11.5 µM) | 8 (≈ 5.76 µM) | >64 | –
N=C(N)NCCC[C@@H]1NC(=O)[C@H](Cc2ccc3ccccc3c2)NC(=O)[C@H](CCCNC(=N)N)NC(=O)[C@H](CC(N)=O)NC(=O)[C@H](CCN)NC(=O)[C@H](Cc2ccc3ccccc3c2)NC(=O)COCCOCCNC(=O)[C@H](Cc2ccccc2)NC(=O)[C@H](CCN)NC1=O [compound 16] (cyclo(R[2Nal]R[Dab]F[AEEA][2Nal][Dab]N)) | 64 (≈ 48.7 µM) | 16 (≈ 12.2 µM) | – | 64 (≈ 48.7 µM) | 16
